From ChEMBL document CHEMBL4011610, “Design, synthesis and optimization of 7-substituted-pyrazolo[4,3-b]pyridine ALK5 (activin receptor-like kinase 5) inhibitors” (Bioorg Med Chem Lett, 2017)
pEC50, pIC50: −log10 of the molar value.

How the values were obtained:
Cytochrome P450 2C8 = target: T1, Cytochrome P450 2C8 (Homo sapiens, UniProt P10632); test: Inhibition of CYP2C8 (unknown origin); format: ADME
T1 sequence (P10632 whole entry): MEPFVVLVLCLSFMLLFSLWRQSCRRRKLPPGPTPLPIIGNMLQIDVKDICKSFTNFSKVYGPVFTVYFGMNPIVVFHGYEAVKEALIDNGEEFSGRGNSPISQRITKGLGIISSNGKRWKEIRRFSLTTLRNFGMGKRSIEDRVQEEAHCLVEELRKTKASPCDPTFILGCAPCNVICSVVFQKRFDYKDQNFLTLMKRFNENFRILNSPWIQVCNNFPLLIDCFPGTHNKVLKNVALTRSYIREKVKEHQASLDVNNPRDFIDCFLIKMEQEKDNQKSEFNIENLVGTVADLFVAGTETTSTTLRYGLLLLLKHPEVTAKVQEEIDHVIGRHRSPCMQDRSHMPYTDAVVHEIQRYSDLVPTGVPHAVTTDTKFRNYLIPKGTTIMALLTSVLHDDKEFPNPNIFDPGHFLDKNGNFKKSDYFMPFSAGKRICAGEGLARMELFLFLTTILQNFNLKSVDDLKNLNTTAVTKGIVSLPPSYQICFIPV

Cytochrome P450 3A4 = Cytochrome P450 3A4 (Homo sapiens, UniProt P08684); test: Inhibition of CYP3A4 (unknown origin); format: ADME
TGF-beta receptor type-1 [1] = target: T2, TGF-beta receptor type-1 (Homo sapiens, UniProt P36897); test: Inhibition of ALK5 in human Calu6 cells assessed as reduction in Smad2/3 phosphorylation; format: cell-based
T2 sequence (P36897 whole entry): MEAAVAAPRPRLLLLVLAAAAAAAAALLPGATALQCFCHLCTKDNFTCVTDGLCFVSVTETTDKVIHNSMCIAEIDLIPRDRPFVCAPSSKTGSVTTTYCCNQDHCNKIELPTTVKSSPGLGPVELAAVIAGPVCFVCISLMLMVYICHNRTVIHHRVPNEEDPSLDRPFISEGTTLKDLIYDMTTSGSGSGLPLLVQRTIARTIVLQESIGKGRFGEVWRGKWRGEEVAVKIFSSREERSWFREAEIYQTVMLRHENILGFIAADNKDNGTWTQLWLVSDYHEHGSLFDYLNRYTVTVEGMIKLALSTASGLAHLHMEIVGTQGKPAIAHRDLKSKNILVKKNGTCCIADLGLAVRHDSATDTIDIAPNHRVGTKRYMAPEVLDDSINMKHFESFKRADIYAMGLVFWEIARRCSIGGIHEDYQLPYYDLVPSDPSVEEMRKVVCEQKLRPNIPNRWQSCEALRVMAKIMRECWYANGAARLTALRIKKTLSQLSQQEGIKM

TGF-beta receptor type-1 [2] = target: T2, TGF-beta receptor type-1; test: Inhibition of recombinant N-terminal GST tagged human ALK5 (200 to 503 residues) expressed in baculovirus expression system using FAM-NH2-KVLTQMGSPSIRCSS[PO4]VS peptide as substrate after 90 mins by LanthaScreen TR-FRET assay
[3] = Hepatic extraction ratio in rat; format: ADME; settings: read-out: ERH
[4] = Hepatic extraction ratio in human; format: ADME; settings: read-out: ERH
TGF-beta receptor type-1 [5] = target: T2, TGF-beta receptor type-1; test: Inhibition of ALK5 (unknown origin) expressed in SBE-bla HEK293T cells assessed as decrease in TGFbeta1-induced Smad2/3 phosphorylation by beta lactamase reporter gene assay; format: cell-based
hERG (KCNH2) = hERG (KCNH2) (Homo sapiens, UniProt Q12809); test: Inhibition of human ERG expressed in CHOK1 cells at 10 uM by automated whole cell patch clamp Qpatch method relative to control; format: cell-based; settings: CHO-K1 cells expressing human ERG
[6] = Oral bioavailability in rat; format: ADME, organism-based; settings: in vivo
[7] = Clearance in rat; format: ADME; settings: in vivo
[8] = Clearance in human microsomes; format: ADME, Microsome
[9] = Clearance in rat microsomes; format: ADME, Microsome

Sequence of Cytochrome P450 3A4 (P08684 whole entry): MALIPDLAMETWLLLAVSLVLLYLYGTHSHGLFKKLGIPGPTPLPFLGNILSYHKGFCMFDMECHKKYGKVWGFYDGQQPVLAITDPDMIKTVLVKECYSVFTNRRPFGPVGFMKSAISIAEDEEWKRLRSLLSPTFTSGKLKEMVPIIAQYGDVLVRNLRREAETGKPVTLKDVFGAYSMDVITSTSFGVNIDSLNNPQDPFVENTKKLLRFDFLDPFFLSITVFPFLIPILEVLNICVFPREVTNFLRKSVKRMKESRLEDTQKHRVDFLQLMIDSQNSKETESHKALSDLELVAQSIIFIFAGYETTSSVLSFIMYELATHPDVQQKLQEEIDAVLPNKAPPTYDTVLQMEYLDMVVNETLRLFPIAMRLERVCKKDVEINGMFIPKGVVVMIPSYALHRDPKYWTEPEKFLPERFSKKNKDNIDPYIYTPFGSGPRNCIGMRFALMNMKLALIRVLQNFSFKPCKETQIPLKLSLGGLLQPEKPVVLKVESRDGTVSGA
Sequence of hERG (KCNH2) (Q12809 whole entry): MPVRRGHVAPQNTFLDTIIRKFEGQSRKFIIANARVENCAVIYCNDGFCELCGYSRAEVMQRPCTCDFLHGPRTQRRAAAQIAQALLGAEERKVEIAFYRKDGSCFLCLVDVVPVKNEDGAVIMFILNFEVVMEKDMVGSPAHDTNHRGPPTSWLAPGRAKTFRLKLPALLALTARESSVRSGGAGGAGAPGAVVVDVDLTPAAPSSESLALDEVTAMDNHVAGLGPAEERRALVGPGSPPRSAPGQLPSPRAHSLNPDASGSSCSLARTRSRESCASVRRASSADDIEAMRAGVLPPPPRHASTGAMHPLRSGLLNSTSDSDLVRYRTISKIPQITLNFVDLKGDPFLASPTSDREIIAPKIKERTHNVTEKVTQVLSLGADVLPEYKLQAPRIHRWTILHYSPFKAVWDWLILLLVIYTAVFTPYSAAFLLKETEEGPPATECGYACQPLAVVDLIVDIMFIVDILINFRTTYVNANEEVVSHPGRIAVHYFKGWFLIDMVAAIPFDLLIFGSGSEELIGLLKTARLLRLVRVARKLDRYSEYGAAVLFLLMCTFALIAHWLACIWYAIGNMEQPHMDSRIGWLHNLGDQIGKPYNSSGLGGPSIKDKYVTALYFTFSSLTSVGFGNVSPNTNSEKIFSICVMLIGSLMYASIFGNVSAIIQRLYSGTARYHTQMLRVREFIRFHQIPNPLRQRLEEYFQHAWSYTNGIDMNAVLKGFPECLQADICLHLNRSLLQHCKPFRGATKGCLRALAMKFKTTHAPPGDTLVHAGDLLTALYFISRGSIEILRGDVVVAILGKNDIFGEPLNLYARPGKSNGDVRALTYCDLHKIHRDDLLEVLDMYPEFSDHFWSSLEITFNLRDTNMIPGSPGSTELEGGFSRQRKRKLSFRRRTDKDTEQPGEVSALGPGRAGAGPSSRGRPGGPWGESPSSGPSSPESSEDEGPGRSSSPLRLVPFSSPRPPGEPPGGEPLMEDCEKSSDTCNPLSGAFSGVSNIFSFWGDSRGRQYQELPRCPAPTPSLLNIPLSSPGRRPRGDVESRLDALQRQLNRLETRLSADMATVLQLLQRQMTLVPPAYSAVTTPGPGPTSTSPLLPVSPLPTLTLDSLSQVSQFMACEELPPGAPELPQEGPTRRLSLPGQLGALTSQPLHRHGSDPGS

Structure (SMILES) | pEC50 (TGF-beta receptor type-1 [1]) | pIC50 (TGF-beta receptor type-1 [2]) | hepatic extraction ratio [3] | hepatic extraction ratio [4] | pEC50 (TGF-beta receptor type-1 [5]) | further results
Cc1ccc(F)c(-c2cc(Nc3ccnc4cn[nH]c34)c(C)cn2)n1 | 7.50 | 8.60 | 0.74 | 0.57 | – | pIC50 (Cytochrome P450 2C8): 5.60; pIC50 (Cytochrome P450 3A4): 5.20
Cc1cnc(-c2cc(Cl)ccc2F)cc1Nc1ccnc2cn(CC(N)=O)nc12 | 7.50 | – | 0.56 | 0.46 | 7.90 | pIC50 (Cytochrome P450 3A4): < 4.30; inhibition at 10 µM (hERG (KCNH2)): 41 to 59%
Fc1ccc(Cl)cc1-c1cc(Nc2ccnc3cn(CC4CCNCC4)nc23)ccn1 | – | 7.00 | 0.16 | 0.36 | 6.00 | –
CCNC(=O)n1ncc2nccc(Nc3ccnc(-c4cc(F)ccc4F)c3)c21 | 6.80 | – | 0.29 | 0.53 | 7.50 | –
Cc1cnc(-c2cc(Cl)ccc2F)cc1Nc1ccnc2cn[nH]c12 | – | 7.80 | 0.75 | 0.57 | 7.50 | pIC50 (Cytochrome P450 2C8): 6.40; pIC50 (Cytochrome P450 3A4): 5.50
CNC(=O)n1ncc2nccc(Nc3cc(-c4cc(F)ccc4F)ncc3C)c21 | 7.70 | – | 0.2 | < 0.23 | 7.60 | –
Cc1cnc(-c2cc(F)ccc2F)cc1Nc1ccnc2cn[nH]c12 | 7.50 | – | 0.84 | 0.74 | 8.10 | pIC50 (Cytochrome P450 2C8): 6.50; pIC50 (Cytochrome P450 3A4): 5.80
Cc1cnc(-c2cc(F)ccc2F)cc1Nc1ccnc2cn(CC(C)O)nc12 (centres undefined) | 6.80 | – | 0.68 | 0.79 | 6.90 | –
COc1cccc2nccc(Nc3cc(-c4cccc(Cl)c4)ncc3C)c12 | – | 7.50 | – | – | – | –
Cc1cnc(-c2cc(F)ccc2F)cc1Nc1ccnc2cnn(CC(C)O)c12 (centres undefined) | 7.70 | 8.50 | 0.54 | 0.64 | 8.10 | –
COc1cccc2nccc(Nc3ccnc(-c4ccccc4)c3)c12 | – | 6.20 | – | – | – | –
Fc1ccc(Cl)cc1-c1cc(Nc2ccnc3cnn(CC4CCNCC4)c23)ccn1 | – | – | 0.93 | 0.91 | – | –
NC(=O)Cn1cc2nccc(Nc3ccnc(-c4cc(F)ccc4F)c3)c2n1 | 5.80 | – | 0.42 | 0.44 | 6.60 | –
Cc1ccc(F)c(-c2cc(Nc3ccnc4cn[nH]c34)ccn2)c1 | – | 7.80 | – | – | – | –
CNC(=O)n1ncc2nccc(Nc3ccnc(-c4cc(Cl)ccc4F)c3)c21 | 7.20 | 8.50 | 0.31 | 0.57 | 7.60 | –
NC(=O)Cn1cc2nccc(Nc3ccnc(-c4cc(Cl)ccc4F)c3)c2n1 | – | 7.90 | 0.54 | 0.52 | 7.00 | pIC50 (Cytochrome P450 3A4): 4.90; inhibition at 10 µM (hERG (KCNH2)): 41 to 59%
Cc1ccc(F)c(-c2cc(Nc3ccnc4cnn(C[C@@H](C)O)c34)c(C)cn2)n1 | 6.30 | 8.10 | 0.3 | 0.3 | 7.00 | inhibition at 10 µM (hERG (KCNH2)): 42%; bioavailability [6]: 38%

Structure (SMILES) | pEC50 (TGF-beta receptor type-1 [1]) | pIC50 (TGF-beta receptor type-1 [2]) | hepatic extraction ratio [3] | hepatic extraction ratio [4] | pEC50 (TGF-beta receptor type-1 [5]) | further results
NC(=O)Cn1ncc2nccc(Nc3ccnc(-c4cc(F)ccc4F)c3)c21 | 5.90 | – | 0.57 | 0.53 | 6.70 | –
COc1cccc2nccc(Nc3ccnc(-c4cc(Cl)ccc4F)c3)c12 | – | 7.70 | – | – | – | –
CNC(=O)n1ncc2nccc(Nc3ccnc(-c4cc(F)ccc4F)c3)c21 | 6.90 | 8.60 | 0.27 | 0.55 | 7.70 | –
Cc1cccc(-c2cc(Nc3ccnc4cn[nH]c34)c(C)cn2)n1 | 6.70 | 8.30 | – | – | 7.50 | –
COc1cccc2nccc(Nc3cc(-c4cc(C)ccc4F)ncc3C)c12 | – | 7.90 | – | – | – | –
COc1cccc2nccc(Nc3cc(-c4cc(Cl)ccc4F)ncc3C3CC3)c12 | – | 7.30 | – | – | – | –
Fc1ccc(Cl)cc1-c1cc(Nc2ccnc3cn[nH]c23)ccn1 | – | 8.20 | – | – | 7.30 | –
COc1cccc2nccc(Nc3ccnc(-c4cccc(Cl)c4)c3)c12 | – | 6.50 | – | – | – | –
Cc1ccc(F)c(-c2cc(Nc3ccnc4cnn(CCO)c34)c(C)cn2)n1 | – | 7.90 | – | – | 7.70 | –
CNC(=O)n1ncc2nccc(Nc3cc(-c4cc(Cl)ccc4F)ncc3C)c21 | – | 7.80 | 0.52 | 0.51 | 7.50 | –
CCn1cc2nccc(Nc3cc(-c4cc(C)ccc4F)ncc3C)c2n1 | 6.80 | 8.00 | – | – | 7.80 | –
COc1cccc2nccc(Nc3ccnc(-c4cc(C)ccc4F)c3)c12 | – | 7.60 | – | – | – | –
Cc1cnc(-c2cc(Cl)ccc2F)cc1Nc1ccnc2cnn(CC(N)=O)c12 | 7.50 | – | 0.44 | 0.54 | 7.70 | clearance [7]: 42 mL/min/kg; pIC50 (Cytochrome P450 3A4): 4.90; inhibition at 10 µM (hERG (KCNH2)): 41 to 59%; bioavailability [6]: 71%
COc1cccc2nccc(Nc3ccnc(-c4nc(C)ccc4F)c3)c12 | – | 7.40 | – | – | – | –
COc1cccc2nccc(Nc3cc(-c4cc(Cl)ccc4F)ncc3C)c12 | – | 7.90 | – | – | – | CLint scaled [8]: 86 mL/min/kg; CLint scaled [9]: 302 mL/min/kg; inhibition at 10 µM (hERG (KCNH2)): 94%
CCc1cnc(-c2cc(Cl)ccc2F)cc1Nc1ccnc2cccc(OC)c12 | – | 7.60 | – | – | – | –
